Source: ChEMBL document CHEMBL4627338, “Selective CDK6 degradation mediated by cereblon, VHL, and novel IAP-recruiting PROTACs” (Bioorg Med Chem Lett, 2020)
Activity calls are given as the source filed them. The rule behind the calls is not given here.

Columns and labels:
CDK6/cyclin D3 = CDK6/cyclin D3 (Homo sapiens, UniProt Q00534); experiment: Inhibition of human CDK6/cyclin-D3 using RB protein as substrate by [gamma-33P]-ATP assay; type: protein-complex assay
[1] = biological target: Cyclin-dependent kinase 4/cyclin D1 (Homo sapiens, UniProt P11802); experiment: Inhibition of human CDK4/cyclin-D1 using RB protein as substrate by [gamma-33P]-ATP assay; type: protein-complex assay
[2] = biological target: Baculoviral IAP repeat-containing protein 2/Cyclin-dependent kinase 6 (Homo sapiens, UniProt Q00534+Q13490); experiment: Protac activity at CDK6/BIRC2 in human Jurkat cells assessed as induction of CDK6 degradation measured after 24 hrs by capillary electrophoresis; type: cell-based
[3] = biological target: T1, Baculoviral IAP repeat-containing protein 2/Cyclin-dependent kinase 4 (Homo sapiens, UniProt P11802+Q13490); experiment: Protac activity at CDK4/BIRC2 in human Jurkat cells assessed as induction of CDK4 degradation measured after 24 hrs by capillary electrophoresis; type: cell-based
Target sequence in this assay (P11802 whole entry): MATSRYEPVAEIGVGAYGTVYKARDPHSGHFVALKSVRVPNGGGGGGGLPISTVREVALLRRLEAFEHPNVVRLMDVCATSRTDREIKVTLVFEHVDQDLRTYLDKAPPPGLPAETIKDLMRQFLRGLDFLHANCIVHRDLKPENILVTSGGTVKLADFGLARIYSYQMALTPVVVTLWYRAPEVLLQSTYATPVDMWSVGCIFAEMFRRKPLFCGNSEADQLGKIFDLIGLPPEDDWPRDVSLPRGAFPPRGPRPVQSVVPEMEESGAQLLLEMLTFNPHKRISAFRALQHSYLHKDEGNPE
Target sequence in this assay (Q13490 whole entry): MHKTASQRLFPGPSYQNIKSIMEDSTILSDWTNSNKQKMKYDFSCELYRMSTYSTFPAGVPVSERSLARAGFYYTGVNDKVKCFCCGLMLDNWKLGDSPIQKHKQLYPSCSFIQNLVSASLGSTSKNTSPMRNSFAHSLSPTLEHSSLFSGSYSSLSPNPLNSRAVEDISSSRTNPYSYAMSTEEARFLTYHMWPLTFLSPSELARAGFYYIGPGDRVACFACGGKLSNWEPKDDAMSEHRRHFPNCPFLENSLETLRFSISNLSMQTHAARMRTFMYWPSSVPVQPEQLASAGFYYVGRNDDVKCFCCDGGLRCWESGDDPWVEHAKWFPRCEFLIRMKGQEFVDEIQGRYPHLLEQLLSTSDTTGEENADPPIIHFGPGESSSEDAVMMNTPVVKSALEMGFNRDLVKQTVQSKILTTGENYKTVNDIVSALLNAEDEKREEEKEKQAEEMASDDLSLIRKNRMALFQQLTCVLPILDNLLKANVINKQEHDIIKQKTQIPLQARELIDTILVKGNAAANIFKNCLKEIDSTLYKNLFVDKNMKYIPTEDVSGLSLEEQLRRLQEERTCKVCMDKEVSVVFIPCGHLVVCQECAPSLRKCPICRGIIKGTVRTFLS

[4] = test system: Baculoviral IAP repeat-containing protein 2/Cyclin-dependent kinase 6 (Homo sapiens); experiment: Protac activity at CDK6/BIRC2 in human epoxomicin pretreated Jurkat cells assessed as decrease in CDK6 protein level measured after 5 hrs
[5] = biological target: T1, Baculoviral IAP repeat-containing protein 2/Cyclin-dependent kinase 4; experiment: Protac activity at CDK4/BIRC2 in human epoxomicin pretreated Jurkat cells assessed as decrease in CDK4 protein level measured after 5 hrs; type: cell-based
Target sequence in this assay (P11802 2-303 limits assumed): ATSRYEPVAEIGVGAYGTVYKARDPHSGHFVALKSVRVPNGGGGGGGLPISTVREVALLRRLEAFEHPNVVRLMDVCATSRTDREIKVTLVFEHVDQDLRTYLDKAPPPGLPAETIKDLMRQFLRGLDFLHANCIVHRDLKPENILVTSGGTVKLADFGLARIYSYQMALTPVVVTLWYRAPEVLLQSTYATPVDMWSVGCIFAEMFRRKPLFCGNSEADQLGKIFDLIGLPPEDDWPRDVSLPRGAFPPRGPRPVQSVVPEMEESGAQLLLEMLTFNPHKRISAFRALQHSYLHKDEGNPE
Target sequence in this assay (Q13490 whole entry partner): as the sequence (Q13490 whole entry) above

[6] = biological target: von Hippel-Lindau disease tumor suppressor/Cyclin-dependent kinase 6 (Homo sapiens, UniProt Q00534+P40337); experiment: Protac activity at CDK6/VHL in human Jurkat cells assessed as induction of CDK6 degradation measured after 24 hrs by capillary electrophoresis; type: cell-based
[7] = biological target: T2, von Hippel-Lindau disease tumor suppressor/Cyclin-dependent kinase 4 (Homo sapiens, UniProt P11802+P40337); experiment: Protac activity at CDK4/VHL in human epoxomicin pretreated Jurkat cells assessed as decrease in CDK4 protein level measured after 5 hrs; type: cell-based
Target sequence in this assay (P11802 2-303 limits assumed): as the sequence (P11802 2-303 limits assumed) above
Target sequence in this assay (P40337 whole entry partner): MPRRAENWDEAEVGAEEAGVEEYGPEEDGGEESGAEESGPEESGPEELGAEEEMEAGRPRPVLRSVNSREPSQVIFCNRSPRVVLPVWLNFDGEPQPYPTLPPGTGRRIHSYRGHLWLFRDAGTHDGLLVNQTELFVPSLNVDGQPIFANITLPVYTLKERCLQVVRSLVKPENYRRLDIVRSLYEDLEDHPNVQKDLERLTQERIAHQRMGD

[8] = biological target: T2, von Hippel-Lindau disease tumor suppressor/Cyclin-dependent kinase 4; experiment: Protac activity at CDK4/VHL in human Jurkat cells assessed as induction of CDK4 degradation measured after 24 hrs by capillary electrophoresis; type: cell-based
Target sequence in this assay (P11802 whole entry): as the sequence (P11802 whole entry) above
Target sequence in this assay (P40337 whole entry): as the sequence (P40337 whole entry partner) above

[9] = test system: von Hippel-Lindau disease tumor suppressor/Cyclin-dependent kinase 4 (Homo sapiens); experiment: Protac activity at CDK4/VHL in human epoxomicin pretreated Jurkat cells assessed as decrease in CDK4 protein level measured after 5 hrs
[10] = biological target: Protein cereblon/Cyclin-dependent kinase 4 (Homo sapiens, UniProt P11802+Q96SW2); experiment: Protac activity at CRBN/CDK4 in human Jurkat cells assessed as induction of CDK4 degradation measured after 24 hrs by capillary electrophoresis; type: cell-based
[11] = biological target: Protein cereblon/Cyclin-dependent kinase 6 (Homo sapiens, UniProt Q00534+Q96SW2); experiment: Protac activity at CRBN/CDK6 in human Jurkat cells assessed as induction of CDK6 degradation measured after 24 hrs by capillary electrophoresis; type: cell-based
Sequence of Protein cereblon/Cyclin-dependent kinase 6 (Q00534 whole entry): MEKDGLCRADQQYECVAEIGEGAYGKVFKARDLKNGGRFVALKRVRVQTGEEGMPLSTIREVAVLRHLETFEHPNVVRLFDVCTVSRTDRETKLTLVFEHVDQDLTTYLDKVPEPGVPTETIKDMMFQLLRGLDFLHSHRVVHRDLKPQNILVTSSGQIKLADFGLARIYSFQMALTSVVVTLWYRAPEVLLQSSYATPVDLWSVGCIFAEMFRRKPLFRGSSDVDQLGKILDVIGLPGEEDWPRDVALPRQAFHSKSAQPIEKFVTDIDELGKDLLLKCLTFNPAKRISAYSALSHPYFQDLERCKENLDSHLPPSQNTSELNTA
Sequence of Protein cereblon/Cyclin-dependent kinase 6 (Q96SW2 whole entry): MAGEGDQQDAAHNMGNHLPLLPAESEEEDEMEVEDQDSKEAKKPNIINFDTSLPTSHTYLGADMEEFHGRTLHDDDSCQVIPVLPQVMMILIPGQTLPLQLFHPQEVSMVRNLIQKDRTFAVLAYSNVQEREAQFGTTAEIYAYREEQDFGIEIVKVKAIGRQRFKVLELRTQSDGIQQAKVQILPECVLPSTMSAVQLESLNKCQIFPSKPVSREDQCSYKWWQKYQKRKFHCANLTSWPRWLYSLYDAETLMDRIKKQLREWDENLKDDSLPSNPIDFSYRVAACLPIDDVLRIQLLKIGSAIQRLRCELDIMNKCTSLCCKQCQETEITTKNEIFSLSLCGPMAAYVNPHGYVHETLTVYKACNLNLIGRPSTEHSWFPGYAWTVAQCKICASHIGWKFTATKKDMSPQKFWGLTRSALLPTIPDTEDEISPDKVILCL

Sequence of Cyclin-dependent kinase 4/cyclin D1 (P11802 whole entry): as the sequence (P11802 whole entry) above
Sequence of Cyclin-dependent kinase 4/cyclin D1 (P24385 whole entry, further chain): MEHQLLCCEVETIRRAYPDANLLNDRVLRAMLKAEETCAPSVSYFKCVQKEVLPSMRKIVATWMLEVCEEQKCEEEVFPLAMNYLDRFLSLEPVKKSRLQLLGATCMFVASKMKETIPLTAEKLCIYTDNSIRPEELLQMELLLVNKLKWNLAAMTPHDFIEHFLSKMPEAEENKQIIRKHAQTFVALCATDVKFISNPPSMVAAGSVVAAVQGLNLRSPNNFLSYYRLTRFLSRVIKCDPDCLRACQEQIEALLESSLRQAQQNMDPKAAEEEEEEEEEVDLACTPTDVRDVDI
Sequence of CDK6/cyclin D3 (P30281 whole entry): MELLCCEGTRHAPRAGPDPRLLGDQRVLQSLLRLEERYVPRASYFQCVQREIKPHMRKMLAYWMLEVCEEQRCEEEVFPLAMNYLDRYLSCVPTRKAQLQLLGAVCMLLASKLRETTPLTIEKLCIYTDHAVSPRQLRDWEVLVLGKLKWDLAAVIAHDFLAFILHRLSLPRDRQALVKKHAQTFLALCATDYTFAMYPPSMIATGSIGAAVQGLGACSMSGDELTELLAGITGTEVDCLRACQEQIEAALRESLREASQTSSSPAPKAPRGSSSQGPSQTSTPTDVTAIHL
Sequence of CDK6/cyclin D3 (Q00534 whole entry): as the sequence (Q00534 whole entry) above
Sequence of Baculoviral IAP repeat-containing protein 2/Cyclin-dependent kinase 6 (Q00534 whole entry): as above
Sequence of Baculoviral IAP repeat-containing protein 2/Cyclin-dependent kinase 6 (Q13490 whole entry): as the sequence (Q13490 whole entry) above
Sequence of von Hippel-Lindau disease tumor suppressor/Cyclin-dependent kinase 6 (Q00534 whole entry): as the sequence (Q00534 whole entry) above
Sequence of von Hippel-Lindau disease tumor suppressor/Cyclin-dependent kinase 6 (P40337 whole entry): as the sequence (P40337 whole entry partner) above
Sequence of Protein cereblon/Cyclin-dependent kinase 4 (P11802 whole entry): as the sequence (P11802 whole entry) above
Sequence of Protein cereblon/Cyclin-dependent kinase 4 (Q96SW2 whole entry): as the sequence (Q96SW2 whole entry) above

Row | Compound | IC50 (CDK6/cyclin D3; read-out: pIC50 (converted)) [nM] | IC50 [1] [nM] | pDC50 [2] | pDC50 [3] | also measured
1 | CN[C@@H](C)C(=O)N[C@H](C(=O)N1C[C@@H](NC(=O)CCOCCOCCOCCNC(=O)CN2CCN(c3ccc(Nc4ncc5c(C)c(C(C)=O)c(=O)n(C6CCCC6)c5n4)nc3)CC2)C[C@H]1C(=O)Nc1c(F)cccc1F)C(C)(C)C | 39.8 | 15.8 | 5.8 | 5.3 | –
2 | CC(=O)c1c(C)c2cnc(Nc3ccc(N4CCN(CCCCCCCC(=O)N[C@H](C(=O)N5C[C@H](O)C[C@H]5C(=O)N[C@@H](C)c5ccc(-c6scnc6C)cc5)C(C)(C)C)CC4)cn3)nc2n(C2CCCC2)c1=O | – | 31.6 | – | – | IC50 (CDK6/cyclin D3; read-out: IC50): 200 nM; DC50 [6]: 4 nM; pDC50 [6]: 8.4; Activity [7]: inactive; pDC50 [8]: 7.6; Activity [9]: inactive
3 | CN[C@@H](C)C(=O)N[C@H](C(=O)N1C[C@@H](NC(=O)COCCOCCOCCN2CCN(c3ccc(Nc4ncc5c(C)c(C(C)=O)c(=O)n(C6CCCC6)c5n4)nc3)CC2)C[C@H]1C(=O)Nc1c(F)cccc1F)C(C)(C)C | 15.8 | 6.31 | 7.8 | 7.1 | –

Second part, led by results:

Row | IC50 (CDK6/cyclin D3; read-out: pIC50 (converted)) [nM] | IC50 [1] [nM] | pDC50 [2] | pDC50 [3] | Compound | also measured
4 | – | 3.16 | – | – | CC(=O)c1c(C)c2cnc(Nc3ccc(N4CCN(CCCCNC(=O)CNc5cccc6c5C(=O)N(C5CCC(=O)NC5=O)C6=O)CC4)cn3)nc2n(C2CCCC2)c1=O (stereo unspecified) | –
5 | 12.6 | 5.01 | 8.3 | 7.7 | CN[C@@H](C)C(=O)N[C@H](C(=O)N1C[C@@H](NC(=O)CCCCCCCN2CCN(c3ccc(Nc4ncc5c(C)c(C(C)=O)c(=O)n(C6CCCC6)c5n4)nc3)CC2)C[C@H]1C(=O)Nc1c(F)cccc1F)C(C)(C)C | Activity [4]: inactive; Activity [5]: inactive
6 | 15.8 | 6.31 | – | – | CC(=O)c1c(C)c2cnc(Nc3ccc(N4CCN(CCOCCOCCNC(=O)CNc5cccc6c5C(=O)N(C5CCC(=O)NC5=O)C6=O)CC4)cn3)nc2n(C2CCCC2)c1=O (stereo unspecified) | pDC50 [10]: 7.3; pDC50 [11]: 8.3
